The structures appear in SMILES notation. Activity calls are given as the source filed them. No cut-off for these calls is given here.

The test system of this assay is Staphylococcus aureus. The assay can be described thus: Antimicrobial activity against Staphylococcus aureus at 100 ug/ml. It counts as functional, organism-based.

Regarding `COc1c2ccoc2nc2c(CC=C(C)C)c(O)ccc12`, the result was inactive.
As to `CC(=O)O[C@@H](CC[C@]1(C)O[C@@H]1COc1ccc(CCNC(=O)c2ccccc2)cc1)C(C)(C)OC(C)=O`, the outcome was inactive.
In the case of `CC(=O)O[C@@H](CC[C@]1(C)O[C@@H]1COc1ccc(CCNC(=O)C=C(C)C)cc1)C(C)(C)OC(C)=O` it was “inactive”.
In the case of `CC(=O)O[C@H](COc1ccc(CCNC(=O)c2ccccc2)cc1)[C@@]1(C)CC[C@@H](C(C)(C)OC(C)=O)O1` it was “inactive”; in that of `CC(=O)OC(C)(C)[C@@H]1CC[C@](C)([C@H](O)COc2ccc(CCNC(=O)c3ccccc3)cc2)O1`, “inactive”.

The values are drawn from ChEMBL document CHEMBL1149721, “New Alkaloids from Haplophyllum tuberculatum” (J Nat Prod, 1992).
